Data reported in ChEMBL document CHEMBL1201862, “PubChem BioAssay data set” (2004).
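96-well plates; 48 h exposure; 5 concentrations. Endpoints by linear interpolation between flanking doses. Not reached: highest tested concentration assigned. GI50: concentration for 50% inhibition of growth.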 Calls of active or inactive are those of the source. Rule as the data show it: active = GI50 up to about 1.1 µM and inactive = higher.

Experiments:
Experiment in all cases: inhibition of tumour cell growth, NCI panel, 48 h
ACHN = system: ACHN
CAKI-1 = system: CAKI-1
KM12 = system: KM12
EKVX = system: EKVX
A549 = system: A549
OVCAR-4 = system: OVCAR-4
MOLT-4 = system: MOLT-4
HOP-92 = system: HOP-92
SNB-19 = system: SNB-19
OVCAR-5 = system: OVCAR-5
M14 = system: M14
HL-60 = system: HL-60
HOP-62 = system: HOP-62
Hs-578T = system: Hs-578T
MCF7 = system: MCF7
MDA-N = system: MDA-N
A498 = system: A498
SF-295 = system: SF-295
K562 = system: K562
M19-MEL = system: M19-MEL

SMILES	GI50 (ACHN)	GI50 (CAKI-1)	GI50 (KM12)	GI50 (EKVX)	GI50 (A549)	GI50 (OVCAR-4)	GI50 (MOLT-4)	GI50 (HOP-92)	GI50 (SNB-19)	GI50 (OVCAR-5)	GI50 (M14)	GI50 (HL-60)	GI50 (HOP-62)	GI50 (Hs-578T)	GI50 (MCF7)	GI50 (MDA-N)	GI50 (A498)	GI50 (SF-295)	GI50 (K562)	GI50 (M19-MEL)
S=C(Nc1ccc2c(c1)Cc1ccccc1-2)Nc1ccc2c(c1)Cc1ccccc1-2	> 100 µM (inactive)	> 100 µM (inactive)	> 100 µM (inactive)	> 100 µM (inactive)	> 100 µM (inactive)	> 100 µM (inactive)	15 µM (inactive)	80.7 µM (inactive)	> 100 µM (inactive)	> 100 µM (inactive)	> 100 µM (inactive)	7.08 µM (inactive)	> 100 µM (inactive)	> 100 µM (inactive)	> 100 µM (inactive)	> 100 µM (inactive)	> 100 µM (inactive)	> 100 µM (inactive)	19.1 µM (inactive)	
c1ccc(CCCNc2nnnc3ccccc23)cc1	85.1 µM (inactive)	46.7 µM (inactive)	> 100 µM (inactive)	70.1 µM (inactive)	63 µM (inactive)	38.9 µM (inactive)	35.6 µM (inactive)	> 100 µM (inactive)	> 100 µM (inactive)	> 100 µM (inactive)	> 100 µM (inactive)	> 100 µM (inactive)	> 100 µM (inactive)	34.8 µM (inactive)	46 µM (inactive)	69 µM (inactive)	> 100 µM (inactive)	44.2 µM (inactive)	47.5 µM (inactive)	
COc1ccc(C(=O)NCCN(C)C)c2nc3ccccc3cc12	0.21 µM (active)	0.241 µM (active)	1.34 µM (inactive)	1.66 µM (inactive)	0.0962 µM (active)	1.54 µM (inactive)	0.0411 µM (active)	1.32 µM (inactive)	0.741 µM (active)	0.163 µM (active)	1.33 µM (inactive)	0.11 µM (active)	0.353 µM (active)	1.4 µM (inactive)	0.401 µM (active)	1.46 µM (inactive)	0.114 µM (active)	0.653 µM (active)	1.44 µM (inactive)	
CC(C)(C)c1cc(C2c3cc4c(cc3OC(O)(CO)C2C(=O)O)OCO4)cc(C(C)(C)C)c1O.CC(C)(C)c1cc(C2c3cc4c(cc3OC3(O)COC(=O)C23)OCO4)cc(C(C)(C)C)c1O (centres undefined)	14.8 µM (inactive)	18.4 µM (inactive)		22.5 µM (inactive)	18.7 µM (inactive)	11.7 µM (inactive)	3.52 µM (inactive)	9.82 µM (inactive)	12.9 µM (inactive)		14.7 µM (inactive)	7.73 µM (inactive)	32.2 µM (inactive)					15.7 µM (inactive)	7.67 µM (inactive)	13.8 µM (inactive)
Cc1c(N)c(C#N)c2n(C)c3ncccc3n2c1=O	> 100 µM (inactive)	> 100 µM (inactive)	> 100 µM (inactive)	> 100 µM (inactive)	> 100 µM (inactive)	> 100 µM (inactive)	> 100 µM (inactive)	> 100 µM (inactive)	> 100 µM (inactive)		> 100 µM (inactive)	> 100 µM (inactive)	> 100 µM (inactive)					> 100 µM (inactive)	> 100 µM (inactive)	> 100 µM (inactive)
COc1ccc(/C(=N\Nc2ccccn2)c2ccccn2)cc1	< 0.01 µM (active)	< 0.01 µM (active)	0.16 µM (active)	< 0.01 µM (active)	0.149 µM (active)	11.4 µM (inactive)	< 0.01 µM (active)	< 0.045 µM (active)	0.544 µM (active)	2.54 µM (inactive)	< 0.01 µM (active)	< 0.01 µM (active)	0.217 µM (active)	0.625 µM (active)	< 0.01 µM (active)	0.631 µM (active)	38.2 µM (inactive)	0.301 µM (active)	< 0.0107 µM (active)	
O=c1nc(N2CCN(c3ccccc3)CC2)ccn1C1OC(CO)C(O)C1O (centres undefined)	> 100 µM (inactive)	> 100 µM (inactive)	38.1 µM (inactive)	61.2 µM (inactive)	> 100 µM (inactive)	27.1 µM (inactive)	49.7 µM (inactive)	24.2 µM (inactive)	> 100 µM (inactive)	> 100 µM (inactive)	37.5 µM (inactive)	39.9 µM (inactive)	> 100 µM (inactive)	> 100 µM (inactive)	54.6 µM (inactive)	56.8 µM (inactive)	> 100 µM (inactive)	61.5 µM (inactive)	29.4 µM (inactive)	
CN(C)CCNCc1ccc2c(-c3ccccc3)nc3cc(Cl)c(Cl)cc3n12	7.6 µM (inactive)	8.51 µM (inactive)	9.73 µM (inactive)	15.3 µM (inactive)	10.1 µM (inactive)	11.3 µM (inactive)	8.53 µM (inactive)	13.1 µM (inactive)	14 µM (inactive)	10.6 µM (inactive)	8.13 µM (inactive)	2.01 µM (inactive)	7.33 µM (inactive)	17.9 µM (inactive)	6.19 µM (inactive)	9.48 µM (inactive)	15.2 µM (inactive)	13.1 µM (inactive)	8.32 µM (inactive)	
O=C(Cc1ccc(Cl)c(Cl)c1)NCC1(N2CCCCC2)CCCCC1	> 100 µM (inactive)	> 100 µM (inactive)	50.7 µM (inactive)	59.8 µM (inactive)	41.4 µM (inactive)	64 µM (inactive)	35.5 µM (inactive)	78.7 µM (inactive)	> 100 µM (inactive)	47.1 µM (inactive)	18.3 µM (inactive)	41.4 µM (inactive)	> 100 µM (inactive)	52.2 µM (inactive)	43.6 µM (inactive)	37 µM (inactive)	60.7 µM (inactive)	37.3 µM (inactive)	50.1 µM (inactive)	
COC(=O)C1=C(O)C(C(=O)OC)[C@]2(O)[C@H](C(=O)OC)[C@H]1C[C@@H](c1cccc(OC)c1)[C@H]2C(=O)OC (some centres undefined)	20.4 µM (inactive)	22.4 µM (inactive)	27.7 µM (inactive)	29.5 µM (inactive)	23.6 µM (inactive)	29 µM (inactive)	20.4 µM (inactive)	47 µM (inactive)	25.9 µM (inactive)	24.9 µM (inactive)	29.7 µM (inactive)	0.207 µM (active)	31 µM (inactive)	18.7 µM (inactive)	23.4 µM (inactive)	15.6 µM (inactive)	21.4 µM (inactive)	35.8 µM (inactive)	28.4 µM (inactive)	
COc1ccc2oc(S(=O)(=O)N3CC(CCl)c4ccc([N+](=O)[O-])cc43)cc2c1 (centres undefined)	0.179 µM (active)	0.0388 µM (active)	0.0465 µM (active)	0.173 µM (active)	0.274 µM (active)	6.28 µM (inactive)	0.223 µM (active)	0.533 µM (active)	0.233 µM (active)	0.832 µM (active)	0.122 µM (active)	0.0579 µM (active)	0.0381 µM (active)	0.0454 µM (active)	0.0401 µM (active)	0.0301 µM (active)	0.0746 µM (active)	0.0374 µM (active)	0.0366 µM (active)	
O=[PH](O)c1cc2ccccc2c2ccccc12			> 100 µM (inactive)	> 100 µM (inactive)	> 100 µM (inactive)	> 100 µM (inactive)	> 100 µM (inactive)		> 100 µM (inactive)		> 100 µM (inactive)	> 100 µM (inactive)	> 100 µM (inactive)					> 100 µM (inactive)	> 100 µM (inactive)	> 100 µM (inactive)
CC(=O)O[C@H]1C[C@H](O[C@H]2[C@@H](O)C[C@H](O[C@H]3[C@@H](O)C[C@H](O[C@H]4CC[C@@]5(C)[C@H](CC[C@@H]6[C@@H]5CC[C@]5(O)[C@@H](C7=CC(=O)OC7)CC[C@]65O)C4)O[C@@H]3C)O[C@@H]2C)O[C@H](C)[C@H]1O[C@@H]1O[C@H](CO)[C@@H](O)[C@H](O)[C@H]1O	0.075 µM (active)	0.132 µM (active)	0.565 µM (active)	0.233 µM (active)	0.0581 µM (active)	0.497 µM (active)	0.0262 µM (active)	0.792 µM (active)	0.771 µM (active)	0.455 µM (active)	0.841 µM (active)	0.223 µM (active)	0.0664 µM (active)	0.348 µM (active)	0.52 µM (active)	0.45 µM (active)	0.383 µM (active)	0.344 µM (active)	0.337 µM (active)	
NNS(=O)(=O)c1cc(C(=O)O)cc(C(=O)O)c1	> 100 µM (inactive)	> 100 µM (inactive)	> 100 µM (inactive)	> 100 µM (inactive)	> 100 µM (inactive)	> 100 µM (inactive)	> 100 µM (inactive)	> 100 µM (inactive)	> 100 µM (inactive)	> 100 µM (inactive)	> 100 µM (inactive)	> 100 µM (inactive)	> 100 µM (inactive)	1.09 µM (active)	> 100 µM (inactive)	> 100 µM (inactive)	> 100 µM (inactive)	> 100 µM (inactive)	> 100 µM (inactive)	
CNc1cccnc1/C=N/N=C(/N)S	0.332 µM (active)	3.48 µM (inactive)	4.52 µM (inactive)	4.39 µM (inactive)	2.61 µM (inactive)	4.09 µM (inactive)	1.5 µM (inactive)	0.849 µM (active)	> 10 µM (inactive)	3.89 µM (inactive)	1.37 µM (inactive)	0.564 µM (active)	3.11 µM (inactive)	> 10 µM (inactive)	0.471 µM (active)	4.69 µM (inactive)	5.35 µM (inactive)	2 µM (inactive)	> 4.76 µM (inactive)	
